Measurements taken from US11807625B2, “Capsid inhibitors for the prevention of HIV” (Gilead Sciences, Inc., priority 2019, dated 2023).
Read-outs that look alike come from different tables or passages of the source.

Assay: PK of compound of Formula (Ia) after single subcutaneous dose of solution formulations in beagle dogs
Format: in vivo
Conditions: male, beagle, dog, plasma, sc, 12 mg/kg; for AUC(0-t): male beagle dogs, single SC 12 mg/kg, mean ± SD, n = 3
Procedure: Formulations containing the compound of Formula (Ia), or a pharmaceutically acceptable salt thereof, were prepared as solutions and optionally administered subcutaneously or intramuscularly to rats, rabbits, and/or dogs.
(§1) A solution of about 400 mg/mL of the compound of Formula (Ia) having 17.00 w/w % water, 36.40 w/w % PEG 300, 35.20 w/w % of a sodium salt of a compound of Formula (Ia), 5.00 w/w % ethanol, and 6.40 w/w % poloxamer 188 was prepared. The solution was administered subcutaneously to male beagle dogs at a dose level of about 12 mg/kg and male Wistar Han rats at a dose level of about 50 mg/kg. The pharmacokinetic profiles were determined, and the results for dogs are summarized in Table and Table, while the results for rats are summarized in Table and Table below.
as §1, with “500” for “400”, “14.06” for “17.00”, “30.12” for “36.40”
A solution of about 300 mg/mL of the compound of Formula (Ia) having 23.33 w/w % water, 48.99 w/w % PEG 300, 26.47 w/w % of a sodium salt of a compound of Formula (Ia), and 1.21 w/w % poloxamer 188 was prepared. The solution was administered subcutaneously to male beagle dogs at a dose level of about 6 mg/kg and male Wistar Han rats at a dose level of about 50 mg/kg. The pharmacokinetic profiles were determined, and the results for dogs are summarized in Table and Table, while the results for rats are summarized in Table and Table below.
as §1, with “18.80” for “17.00”, “40.25” for “36.40”, “34.38” for “35.20”, “1.57” for “6.40”
as §1, with “500” for “400”, “16.29” for “17.00”, “34.88” for “36.40”, “41.92” for “35.20”, “1.91” for “6.40”
as §1, with “20.90” for “17.00”, “44.72” for “36.40”, “and 34.38” for “35.20”, “(Ia)” for “(Ia), 5.00 w/w % ethanol, and 6.40 w/w % poloxamer 188”
A solution of about 400 mg/mL of the compound of Formula (Ia) having 19.90 w/w % water, 42.59 w/w % PEG 300, 34.38 w/w % of a sodium salt of a compound of Formula (Ia), and 3.13 w/w % poloxamer 188 was prepared. The solution was administered subcutaneously to male beagle dogs at a dose level of about 12 mg/kg and male Wistar Han rats at a dose level of about 50 mg/kg. […]

[1] = beagle dogs, SC 12 mg/kg, 500 mg/mL solution X (5.00% ethanol, 1.91% poloxamer 188), Mean n = 3
[2] = beagle dogs, SC 12 mg/kg, 500 mg/mL solution X (5.00% ethanol, 1.91% poloxamer 188), animals #1-#3

concentration at 24 h [1]: 39.7 nM
concentration at 24 h [2]: 32.8 nM
concentration at 48 h [1]: 44.7 nM
concentration at 48 h [2]: 39.8 nM
concentration at 72 h (beagle dogs, SC 12 mg/kg, 500 mg/mL solution X (5.00% ethanol, 1.91% poloxamer 188), 72.0 h, Mean n = 3): 36.5 nM
concentration at 96 h (beagle dogs, SC 12 mg/kg, 500 mg/mL solution X (5.00% ethanol, 1.91% poloxamer 188), 96.0 h, Mean n = 3): 31.4 nM
concentration at 168 h (beagle dogs, SC 12 mg/kg, 500 mg/mL solution X (5.00% ethanol, 1.91% poloxamer 188), 168 h, Mean n = 3): 39.2 nM
concentration at 336 h (beagle dogs, SC 12 mg/kg, 500 mg/mL solution X (5.00% ethanol, 1.91% poloxamer 188), 336 h, Mean n = 3): 50.3 nM
concentration at 504 h (beagle dogs, SC 12 mg/kg, 500 mg/mL solution X (5.00% ethanol, 1.91% poloxamer 188), 504 h, Mean n = 3): 114 nM
concentration at 672 h (beagle dogs, SC 12 mg/kg, 500 mg/mL solution X (5.00% ethanol, 1.91% poloxamer 188), 672 h, Mean n = 3): 110 nM
concentration at 840 h (beagle dogs, SC 12 mg/kg, 500 mg/mL solution X (5.00% ethanol, 1.91% poloxamer 188), 840 h, Mean n = 3): 61.4 nM
concentration at 1008 h (beagle dogs, SC 12 mg/kg, 500 mg/mL solution X (5.00% ethanol, 1.91% poloxamer 188), 1008 h, Mean n = 3): 68.3 nM
concentration at 1344 h (beagle dogs, SC 12 mg/kg, 500 mg/mL solution X (5.00% ethanol, 1.91% poloxamer 188), 1344 h, Mean n = 3): 48.5 nM
concentration at 1680 h (beagle dogs, SC 12 mg/kg, 500 mg/mL solution X (5.00% ethanol, 1.91% poloxamer 188), 1680 h, Mean n = 3): 37.7 nM
concentration at 2016 h (beagle dogs, SC 12 mg/kg, 500 mg/mL solution X (5.00% ethanol, 1.91% poloxamer 188), 2016 h, Mean n = 3): 23.4 nM
concentration at 2352 h (beagle dogs, SC 12 mg/kg, 500 mg/mL solution X (5.00% ethanol, 1.91% poloxamer 188), 2352 h, Mean n = 3): 24.3 nM
concentration at 2688 h (beagle dogs, SC 12 mg/kg, 500 mg/mL solution X (5.00% ethanol, 1.91% poloxamer 188), 2688 h, Mean n = 3): 14.6 nM
concentration at 3024 h (beagle dogs, SC 12 mg/kg, 500 mg/mL solution X (5.00% ethanol, 1.91% poloxamer 188), 3024 h, Mean n = 3): 14.6 nM
concentration at 3360 h (beagle dogs, SC 12 mg/kg, 500 mg/mL solution X (5.00% ethanol, 1.91% poloxamer 188), 3360 h, Mean n = 3): 9.6 nM
concentration at 3696 h (beagle dogs, SC 12 mg/kg, 500 mg/mL solution X (5.00% ethanol, 1.91% poloxamer 188), 3696 h, Mean n = 3): 8.6 nM
concentration at 4032 h (beagle dogs, SC 12 mg/kg, 500 mg/mL solution X (5.00% ethanol, 1.91% poloxamer 188), 4032 h, Mean n = 3): 8.3 nM
concentration at 4368 h (beagle dogs, SC 12 mg/kg, 500 mg/mL solution X (5.00% ethanol, 1.91% poloxamer 188), 4368 h, Mean n = 3): 6.4 nM
AUC(0-t) (400 mg/mL solution AA (6.25% poloxamer 188), read-out: AUC0-24 h): 1.57 ± 0.56 µM·h
AUC(0-t) (400 mg/mL solution AA (6.25% poloxamer 188), read-out: AUC0-168 h): 22.2 ± 7 µM·h
AUC(0-t) (400 mg/mL solution AA (6.25% poloxamer 188), read-out: AUC0-336 h): 46.3 ± 9.4 µM·h
AUC(0-t) (400 mg/mL solution AA (6.25% poloxamer 188), read-out: AUC0-672 h): 108 ± 26 µM·h
AUC(0-t) (400 mg/mL solution AA (6.25% poloxamer 188), read-out: AUC0-1008 h): 149 ± 31 µM·h
AUC(0-t) (400 mg/mL solution AA (6.25% poloxamer 188), read-out: AUC0-1344 h): 171 ± 33 µM·h
AUC(0-t) (400 mg/mL solution AA (6.25% poloxamer 188), read-out: AUC0-2352 h): 195 ± 35 µM·h
AUC(0-t) (400 mg/mL solution AA (6.25% poloxamer 188), read-out: AUC0-3024 h): 200 ± 35 µM·h
AUC(0-t) (400 mg/mL solution AA (6.25% poloxamer 188), read-out: AUC0-3696 h): 208 ± 47 µM·h
AUC(0-t) (400 mg/mL solution Y (water, PEG 300), read-out: AUC0-24 h): 0.996 ± 0.513 µM·h
AUC(0-t) (400 mg/mL solution Y (water, PEG 300), read-out: AUC0-168 h): 9.61 ± 2.6 µM·h
AUC(0-t) (400 mg/mL solution Y (water, PEG 300), read-out: AUC0-336 h): 27.4 ± 1.9 µM·h
AUC(0-t) (400 mg/mL solution Y (water, PEG 300), read-out: AUC0-672 h): 100 ± 7.2 µM·h
AUC(0-t) (400 mg/mL solution Y (water, PEG 300), read-out: AUC0-1008 h): 146 ± 11 µM·h
AUC(0-t) (400 mg/mL solution Y (water, PEG 300), read-out: AUC0-1344 h): 172 ± 16 µM·h
AUC(0-t) (400 mg/mL solution Y (water, PEG 300), read-out: AUC0-2352 h): 200 ± 19 µM·h
AUC(0-t) (400 mg/mL solution Y (water, PEG 300), read-out: AUC0-3024 h): 207 ± 19 µM·h
AUC(0-t) (400 mg/mL solution Y (water, PEG 300), read-out: AUC0-3696 h): 210 ± 18 µM·h
AUC(0-t) (400 mg/mL solution Z (3.13% poloxamer 188), read-out: AUC0-24 h): 1.02 ± 0.58 µM·h
AUC(0-t) (400 mg/mL solution Z (3.13% poloxamer 188), read-out: AUC0-168 h): 10.6 ± 4.9 µM·h
AUC(0-t) (400 mg/mL solution Z (3.13% poloxamer 188), read-out: AUC0-336 h): 30.1 ± 14.8 µM·h
AUC(0-t) (400 mg/mL solution Z (3.13% poloxamer 188), read-out: AUC0-672 h): 92.7 ± 31 µM·h
AUC(0-t) (400 mg/mL solution Z (3.13% poloxamer 188), read-out: AUC0-1008 h): 125 ± 31 µM·h
AUC(0-t) (400 mg/mL solution Z (3.13% poloxamer 188), read-out: AUC0-1344 h): 147 ± 32 µM·h
AUC(0-t) (400 mg/mL solution Z (3.13% poloxamer 188), read-out: AUC0-2352 h): 170 ± 33 µM·h
SMILES: CC(C)(C#Cc1ccc(-c2ccc(Cl)c3c(NS(C)(=O)=O)nn(CC(F)(F)F)c23)c([C@H](Cc2cc(F)cc(F)c2)NC(=O)Cn2nc(C(F)(F)F)c3c2C(F)(F)[C@@H]2C[C@H]32)n1)S(C)(=O)=O [compound of Formula (Ia)]
